Reference: patent publication US9540323B2 (BRISTOL-MYERS SQUIBB COMPANY, priority 2012, dated 2017)

Legend:
[1] = biological target: cloned human P2Y1 receptors (Homo sapiens (Human), UniProt P47900); assay: Binding Assay A - membrane binding assay, [33P] 2MeS-ADP (WGA FlashPlate); conditions: values marked * in Table 1; 0.5 nM [33P] 2MeS-ADP, Cheng-Prusoff; read-out: P2Y1 Ki (nM) using binding assay A
Description: A membrane binding assay was used to identify inhibitors of [^33P] […] The cDNA clone for human P2Y1 was obtained from Incyte Pharmaceuticals and its sequence confirmed by established techniques (for a compendium of techniques used see Ausubel, F. et al., Current Protocols in Molecular Biology, John Wiley and Sons, NY, NY (1995)). The essential coding sequences were subcloned into pCDNA 3.1 (Invitrogen) to produce a P2Y1 expression construct. This construct was then transfected into the human embryonic kidney cell line HEK-293 and stable transfectants selected in GENETICIN® (G418 sulfate; Life Technologies). […] Membranes were prepared by growing HEK293 #49 in 150 mm dishes in DMEM/10% FBS in the presence of 1 mg/ml G418 until cells were 80-90% confluent. Plates were then washed with cold (4° C.) D-PBS twice and cells harvested by scraping into 10 mL D-PBS. Cells were pelleted by centrifugation (1,000 g, 10 min, 4° C.) and the resulting pellet resuspended in Lysis Buffer (10 mM Tris (7.4), 5 mM MgCl2 containing Complete protease inhibitor cocktail (Roche Cat #1873580) as recommended by the manufacturer). The suspension was then homogenized in a Dounce homogenizer (10-15 strokes; B pestle, on ice) and the homogenate spun at 1,000 g, 4° C., 5 min to pellet large debris. The supernatant was centrifuged at 150,000 g, 4° C., for 1 hour and the resulting membrane pellet resuspended in 0.5-1 mL of Buffer B (15 mM HEPES (7.4), 145 mM NaCl, 0.1 mM MgCl2, 5 mM EDTA, 5 mM KCl) and stored at −70° C. until used.
Binding reactions were performed in WGA FLASHPLATE®s (PerkinElmer Life Sciences, Cat # SMP105A) in a volume of 200 μL containing ˜45 fmol of P2Y1 receptor (5 μg of total protein), 0.5 nM [^33P] […] Reactions were allowed to proceed to completion at room temperature for 1 hour and then the aqueous solution aspirated. Plates were sealed and the residual [^33P] bound to the plate determined by scintillation counting.

[2] = tested on: human platelet rich plasma (PRP); assay: ADP induced platelet aggregation assay; conditions: Homo sapiens, Platelet, 5 min, read-out: PA IC50 (μM) @ 10 μM ADP, human PRP, 10 μM ADP, AUC at 5 minute

Sequence of cloned human P2Y1 receptors (P47900 whole entry): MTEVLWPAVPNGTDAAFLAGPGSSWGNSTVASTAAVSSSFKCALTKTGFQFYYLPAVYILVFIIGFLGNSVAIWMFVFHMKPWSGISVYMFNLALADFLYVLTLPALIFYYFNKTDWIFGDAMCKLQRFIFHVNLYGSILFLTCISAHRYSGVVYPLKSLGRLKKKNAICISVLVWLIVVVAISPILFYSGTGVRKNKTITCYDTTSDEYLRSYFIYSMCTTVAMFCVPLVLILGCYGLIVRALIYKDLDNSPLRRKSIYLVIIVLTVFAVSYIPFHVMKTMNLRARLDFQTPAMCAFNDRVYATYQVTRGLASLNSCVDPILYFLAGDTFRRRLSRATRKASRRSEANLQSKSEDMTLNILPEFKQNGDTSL

Row | Structure (SMILES) | Ki [1] [nM] | IC50 [2] [µM]
1 | CC1(C)CN(c2ccccc2NC(=O)Nc2ccc(OC(F)(F)F)cc2)c2c(O)ccc(-c3nccs3)c21 [Example 124, 1-(2-(7-Hydroxy-3,3-dimethyl-4-(thiazol-2-yl)indolin-1-yl)phenyl)-3-(4-(trifluoromethoxy)phenyl)urea] | 3.4 | 0.82
2 | CC1(C)CN(c2ccccc2NC(=O)Nc2ccc(OC(F)(F)F)cc2)c2c(O)ccc(-c3ccc(C(F)(F)F)cn3)c21 [Example 125, 1-(2-(7-Hydroxy-3,3-dimethyl-4-(5-(trifluoromethyl)pyridin-2-yl)indolin-1-yl)phenyl)-3-(4-(trifluoromethoxy)phenyl)urea] | 4.8 | 0.15
3 | CC(C)c1cnc(-c2ccc(O)c3c2C(C)(C)CN3c2ccccc2NC(=O)Nc2ccc(OC(F)(F)F)cc2)nc1 [Example 126, 1-(2-(7-Hydroxy-4-(5-isopropylpyrimidin-2-yl)-3,3-dimethylindolin-1-yl)phenyl)-3-(4-(trifluoromethoxy)phenyl)urea] | 4.1 | 0.3
4 | CC(C)c1nc(-c2ccc(O)c3c2C(C)(C)CN3c2ccccc2NC(=O)Nc2ccc(OC(F)(F)F)cc2)cs1 [Example 127, 1-(2-(7-Hydroxy-4-(2-isopropylthiazol-4-yl)-3,3-dimethylindolin-1-yl)phenyl)-3-(4-(trifluoromethoxy)phenyl)urea] | 4.7 | 0.28
5 | CC1(C)CN(c2ccccc2NC(=O)Nc2nc3ccc(F)cc3s2)c2c(O)ccc(-c3nc4cc(F)ccc4s3)c21 [Example 171, 1-(6-Fluorobenzo[d]thiazol-2-yl)-3-(2-(4-(5-fluorobenzo[d]thiazol-2-yl)-7-hydroxy-3,3-dimethylindolin-1-yl)phenyl)urea] | 8.7 | 0.36
6 | CC1(C)CN(c2ccccc2NC(=O)Nc2nc3ccc(Cl)nc3s2)c2c(O)ccc(-c3nc4cc(F)ccc4s3)c21 [Example 173, 1-(5-Chlorothiazolo[5,4-b]pyridin-2-yl)-3-(2-(4-(5-fluorobenzo[d]thiazol-2-yl)-7-hydroxy-3,3-dimethylindolin-1-yl)phenyl)urea] | 20.7 | 0.5
7 | CC1(C)CN(c2ccccc2NC(=O)Nc2ccc(OC(F)(F)F)cc2)c2c(O)ccc(-c3nc4ccc(F)cc4s3)c21 [Example 174, 1-(2-(4-(6-Fluorobenzo[d]thiazol-2-yl)-7-hydroxy-3,3-dimethylindolin-1-yl)phenyl)-3-(4-(trifluoromethoxy)phenyl)urea] | 6.3 | 0.32
8 | CC1(C)CN(c2ccccc2NC(=O)Nc2nc3ccc(F)cc3s2)c2c(O)ccc(-c3nc4ccc(F)cc4s3)c21 [Example 175, 1-(6-Fluorobenzo[d]thiazol-2-yl)-3-(2-(4-(6-fluorobenzo[d]thiazol-2-yl)-7-hydroxy-3,3-dimethylindolin-1-yl)phenyl)urea] | 17.6 | 0.35
9 | CC1(C)CN(c2ccccc2NC(=O)Nc2nc3ccc(Cl)nc3s2)c2c(O)ccc(-c3nc4ccc(F)cc4s3)c21 [Example 176, 1-(5-Chlorothiazolo[5,4-b]pyridin-2-yl)-3-(2-(4-(6-fluorobenzo[d]thiazol-2-yl)-7-hydroxy-3,3-dimethylindolin-1-yl)phenyl)urea] | 13 | 0.35
10 | CC1(C)CN(c2ccccc2NC(=O)Nc2csc(C(F)(F)F)n2)c2c(O)cc(F)c(-c3ccc(C(F)(F)F)cc3)c21 [Example 217, 1-(2-(5-Fluoro-7-hydroxy-3,3-dimethyl-4-(4-(trifluoromethyl)phenyl)indolin-1-yl)phenyl)-3-(2-(trifluoromethyl)thiazol-4-yl)urea] | 8 | 0.16
11 | CC1(C)CN(c2ccccc2NC(=O)Nc2csc(C(F)(F)F)n2)c2c(O)cc(F)c(-c3ccc(Cl)cc3)c21 [Example 218, 1-(2-(4-(4-Chlorophenyl)-5-fluoro-7-hydroxy-3,3-dimethylindolin-1-yl)phenyl)-3-(2-(trifluoromethyl)thiazol-4-yl)urea] | 9.3 | 0.37
